The nature of data set [1]: Metabolic stability in rat hepatocytes. The format is in vitro ADME. As to conditions: male, Wistar, freshly isolated rat hepatocytes in suspension, 10^6 cells/ml, analysed over 24 h, read-out: T½ (converted). The source says: Hepatocytes from adult male Wistar rats (IFFA Credo, L'Arbresle, France) were isolated by an in situ liver perfusion using collagenase (purchased from Sigma (St. Louis, Mo., U.S.A), according to a procedure described by Seglen (Preparation of isolated rat liver cell, Methods Cell Biol. 13, 29–83, 1976) and modified by Williams et al. (Rat hepatocyte primary culture. III. Improved dissociation and attachment techniques and the enhancement of survival by culture medium, in vitro 13: 809–817, 1977). After estimation of cell viability by the peripheral refractoriness of intact cells in phase contrast microscopy and the trypan blue test, freshly isolated hepatocytes were washed in basal William's medium E (WME) supplemented with 10% (v/v) fetal calf serum, 70 μM cortisol, 2 mM L-glutamine, 10 mM HEPES buffer, and 4 mM NaOH. […]
Each substance of each concentration will be analysed 10 times during 24 h (1 h, 2 h, 4 h, 6 h, 8 h, 10 h, 12 h, 16 h, 20 h, 24 h).

The conditions of data set [2]: literature values; cited from earlier work.

Like-named read-outs stand apart in the source and are kept apart here.

`CCNC(=O)[C@@H]1CCCN1C(=O)[C@H](Cc1ccccc1)NC(=O)[C@H]([C@@H](C)CC)N(CC)CC` [N,N-Diethyl-Ile-Phe-ProNHEt, N,N-diethyl-isoleucyl-phenylalanyl-L-proline ethylamide]: the “PAMPA classification, predicted absorption after peroral application” value (PAMPA) was “medium to highly absorbed”.

For `CC[C@H](C)[C@H](NC(C)C)C(=O)N[C@H](C(=O)N1CCC[C@H]1C(N)=O)[C@@H](C)CC` [N-Isopropyl-Ile-Ile-ProNH2], the “PAMPA classification, predicted absorption after peroral application” value (PAMPA) is “medium to highly absorbed”. Besides, the half-life in data set [1] was 2.6 h.

thyreoliberin [TRH, reference compound]: the “Pampa Flux (%) Mean ± SEM” value (500 μM in Tris-buffer pH 7,4, diffusion time 16 h) is on record as less than 10%. Also, for the setting “classification by flux rate”, the “PAMPA classification, predicted absorption after peroral application” value is “weakly absorbed”.

Consider `CC[N+](C)(C)Cc1ccccc1Br` [Bretylium, reference compound], for which the “Pampa Flux (%) Mean ± SEM” value (PAMPA, 16 h, 500 μM, pH 7) was found to be 0%.

As to `CC[C@H](C)[C@H](NC(=O)[C@H]([C@@H](C)CC)N(CC)CC)C(=O)N1CCC[C@H]1C(N)=O` [N,N-Diethyl-Ile-Ile-ProNH2, N,N-diethyl-isoleucyl-isoleucyl-prolineamide], the “PAMPA classification, predicted absorption after peroral application” value (PAMPA) is “medium to highly absorbed”.

For the molecule `CC[C@H](C)[C@H](NC(=O)CN(CC)CC)C(=O)N1CCC[C@H]1C(N)=O` [N,N-Diethyl-Gly-Ile-ProNH2], the “PAMPA classification, predicted absorption after peroral application” value (PAMPA) is reported as “medium to highly absorbed”.

On to `C[C@]12CCC(=O)C=C1CC[C@@H]1[C@@H]2[C@@H](O)C[C@@]2(C)[C@H]1CC[C@]2(O)C(=O)CO` [Hydrocortisone], for which, in data set [2], the “flux rates published by Kansy et al.” value is recorded as 52%.

As to `O=c1ccc2ccccc2o1` [Coumarin, reference compound], the “Pampa Flux (%) Mean ± SEM” value (PAMPA, 16 h, 500 μM, pH 7) was 72 ± 2%. Besides, the “flux rates published by Kansy et al.” value in data set [2] is on record as 66%.

These data come from patent publication US7129213B2, “Tripeptides and tripeptide derivatives for the treatment of neurodegenerative diseases” (Neurotell AG, priority 2002, dated 2006).
